The values below come from a melting point compilation (Tetko et al.; mined from patent text by program, amines drawn as free bases though some values may be those of a salt).

As for `CC(C(N)=O)c1ccc2c(c1)CC(=O)c1ccccc1S2` (stereo not given), the melting point was in the range of 184 to 186 °C.
With `CCOC(=O)CCc1coc2c(O[Si](C)(C)C(C)(C)C)c3ccccc3c(C)c12` the figure was 92.4 to 93.5 °C; with `O=C(NCC1(c2ccccc2)CCCCC1)Nc1cccc(Cl)c1Cl`, 214 to 215 °C; with `Cc1nc(C[C@H]2OC[C@H](c3ccc(F)cc3)CO2)nc(C(=O)NCC(=O)O)c1O`, 209 °C.
`C#CC(C)N(C)c1nc2ccc(OC(F)(F)F)cc2s1` (stereo not given) yielded a melting point of 42 to 43 °C.
With `O=C(O)C(O)(CC1CCCCC1)c1ccccc1` (stereo not given) the figure was 138 to 140 °C.
`Cc1nnc2n1-c1ccccc1NC2C` (stereo not given) registered a melting point of 172 to 173 °C.
In the case of `COc1cc(CO)c(OC)cc1Cl`, the melting point was in the range of 89 to 90 °C.
`COc1cc2c(cc1Nc1ncc(Cl)c(N[C@@H]3CCCC[C@H]3NS(C)(=O)=O)n1)CCN(CCS(C)(=O)=O)CC2` showed a melting point of 216 to 235 °C.
In the case of `C(=C\c1nc(COc2ccc(CCCn3cnnn3)cc2)co1)/c1ccccc1`, the melting point lay in the range of 147 to 148 °C.
Regarding `O=C1N(Cc2ncc(F)cc2F)c2ccccc2C12COc1cc3c(cc12)OCCO3` (stereo not given), the melting point is 220 to 222 °C.
The figure for `CC1COCC(C)N1C(=O)N1Cc2c(-c3noc(C4CC4)n3)ncn2-c2ccc(F)cc21` (stereo not given) is 143 to 146 °C; for `OC(CCCCCOc1ccccc1)c1cccc(OCc2ccc3ccccc3n2)c1` (stereo not given) it is 83 to 84.5 °C; for `CN(C)C1CCN(Cc2ccc3c(c2)Cc2c(-c4cccs4)n[nH]c2-3)CC1` it is 96 to 98 °C.
`CCN(CC=C(Cl)Cl)C(=O)Nc1ccc(Cl)c(Cl)c1` showed a melting point of 105 to 106 °C.
`CCOC(=O)c1ccc2c(c1)sc1cc(N(C)C)ccc12` had a melting point of 160 to 162 °C.
Compound `CCOC(=O)C(Cc1ccc(C(=O)C(C)(C)C)cc1)(Cc1ccc(C(=O)C(C)(C)C)cc1)C(=O)OCC` gave a melting point of 65 to 67 °C.
With `CC(Nc1ncccc1C#N)c1c(Cl)cccc1Cl` (stereo not given) the figure was 84.4 °C.
Regarding `Fc1cc(C(F)(F)F)cc(Cl)c1Oc1ccc2cn[nH]c2c1`, the melting point lay in the range of 134 to 143 °C.
The figure for `CC(=O)Nc1ccc(Oc2c([N+](=O)[O-])cc(C(=O)O)cc2S(=O)(=O)NC(C)=O)cc1` is 305 to 306 °C.
With `COc1cc(C=C(C=O)C(C=O)=Cc2ccc(O)c(OC)c2)ccc1O`, the melting point lay in the range of 177 to 178 °C.
The compound `O=C(CCl)Nc1cc2c(Nc3cc(Cl)c(Cl)cc3F)ncnc2cc1OCCOCCF` returned a melting point of 167 to 169 °C.
With `COC(=O)Nc1nc2ccc(OS(=O)(=O)c3ccc(-n4ccnc4)cc3)cc2[nH]1` the figure was 258 °C; with `Cc1cc(CCCCNc2nc(CO)nn2C)sc1C=O`, 118 to 121 °C; with `N#Cc1ccc(CBr)c(Cl)c1`, 83 to 85 °C.
`Cc1ccc(-c2cccc3ccccc23)n1CC[C@H]1C[C@H](O)CC(=O)O1` (relative stereo) had a melting point of 137 to 138 °C.
For the compound `CCOP(=O)(CNc1cc(Oc2ccc(C(F)(F)F)cc2Cl)ccc1[N+](=O)[O-])OCC`, the melting point fell in the range of 78 to 79 °C.
The compound `COC(=O)c1ccc(Cn2c(C)nc3ccccc32)c2ccccc12` returned a melting point of 207 to 208 °C.
`CCCCC1=NC(=NOC(=O)NC)SC1(C)C` yielded a melting point of 128 to 130 °C.
With `O=C1CN(c2ccccc2)C(=O)N1C1CCCCC1`, the melting point came out at 196 °C.
`CCOC(=O)COc1coccc1=O` registered a melting point of 58 to 60 °C.
The figure for `CC(=NOCc1ccccc1-n1c(Cl)nn(C)c1=O)c1cccc(C(F)(F)F)c1` is 95 to 97 °C; for `CC(C)CC(N)C(=O)NC(=O)N(CCCl)N=O` (racemic) it is 82 to 84 °C; for `O=Nc1c(-c2ccc(Cl)cc2)nc2sc3ccccc3n12` it is 203 to 206 °C.
In turn, `COC(=O)c1cc(N)c(F)c(Br)n1` returned a melting point of 187 to 190 °C.
With `O=C1CCC2=C(CCc3cccc(Cl)c32)N1` the figure was 184 °C.
In turn, `OC(c1ccc2c(c1)CCN2)(C(F)F)C(F)F` yielded a melting point of 130 to 134 °C.
In turn, `CCOc1cc2c(cc1OC(C)=O)OCS2` came in with a melting point of 131 °C.
Regarding `CCOC(=O)c1c(Cn2nccn2)nc2cc(OC)c(OC)cc2c1-c1ccc(OC)c(OC)c1`, the melting point fell in the range of 163 to 164 °C.
Regarding `N#CC(c1ccc([N+](=O)[O-])cc1)c1ccc(Cl)cc1Cl` (stereo not given), the melting point lay within 81 to 82.5 °C.
`Nc1cc(Oc2ccc3c(C(=O)Nc4cccc(C(F)(F)F)c4)nccc3c2)ncn1` had a melting point of 197 to 200 °C.
As to `Cc1cc(O)ccc1-c1cc2ccccc2[nH]1`, the melting point worked out at 106 °C.
`CCOc1nc2c(C(=O)OC)sc(C)c2[nH]1` showed a melting point of 209 to 210 °C.
Regarding `NC(=O)CN1CCC1=O`, the melting point lay within 112 to 113 °C.
As to `COC(=O)[C@@H](NC(=O)OCc1ccccc1)C(C)C`, the melting point fell in the range of 54 to 56 °C.
In the case of `CN1CC(C(=O)N(Cc2ccc(F)cc2)OCC(=O)O)=C(O)C1=O`, the melting point fell in the range of 147 to 150 °C.
Take `COc1ccc2c(c1C)CCCC2=O`: the melting point was in the range of 103 to 105 °C.
Regarding `CCCc1c2c(c([N+](=O)[O-])c3c(=O)cc(C(=O)O)oc13)CCCC2`, the melting point fell in the range of 265 to 267 °C.
Consider `COc1ccc2c(c1)CCc1c-2n(-c2ccc(O[Si](C)(C)C(C)(C)C)cc2)c(=O)c2cc(OC)ccc12`, for which the melting point was in the range of 194 to 195 °C.
The figure for `CN1C(=O)CN=C(c2ccc(O)cc2)c2cc(Cl)ccc21` is 225 to 259 °C; for `CN(CCc1ccncc1)S(=O)(=O)C1CCCCC1` it is 94 to 96 °C; for `CCCCN(CCCC)CCCNS(=O)(=O)c1ccc2c(c1)C(=O)c1cc(S(=O)(=O)NCCCN(CCCC)CCCC)ccc1C2=O` it is 93 to 95 °C.
The figure for `CCCN(CCO)C(=O)c1ccc(C(=O)N2CCN(c3ncccc3NC(C)C)CC2)cc1` is 79 to 82 °C.
For `O=Cc1c(N2CCNCC2)n(-c2ccccc2)c2ccccc12`, the melting point amounted to 175 °C.
For `CC(C)(C)OC(=O)c1ccc(NC2CCc3cc4nc(CO)[nH]c(=O)c4cc32)cc1` (racemic), the melting point is 265 to 266 °C.
Compound `Cc1cccc2oc3cc(Cl)ccc3c(=O)c12` registered a melting point of 111 to 113 °C.
In turn, `COc1ccc(/C=C/c2ccc(Cl)cc2[N+](=O)[O-])c([N+](=O)[O-])c1` had a melting point of 202 °C.
The figure for `BrCCc1cc(Br)c(CCBr)cc1Br` is 106 to 108 °C; for `O=C(O)CCC12CCCn3c1c(c1ccccc13)CCO2` (stereo not given) it is 153 to 155 °C; for `Nc1cccc(-c2ccc(CCN3CCC4(CC3)NC(=O)N(CCc3ccccc3)C4=O)cc2)n1` it is 176 to 180 °C.
Compound `COC(=O)Cn1c(C(=O)Nc2nc(-c3cc(OC)c(C)cc3OC)c(CCC3CCCCC3)s2)cc2cc(C)cc(C)c21` returned a melting point of 154 to 162 °C.
In turn, `CCOC(=O)N1CCC(n2ccc3ccccc32)CC1` yielded a melting point of 127 °C.
`CC(CO)c1ccc(-c2ccc(F)cc2F)c(O)c1` (stereo not given) registered a melting point of 118 °C.
Consider `CCCC(O)C(C)C(=O)n1c(=O)oc2ccccc21` (stereo not given), for which the melting point was 123 to 124 °C.
As to `O=C(O)c1c(-c2ccccc2)nc2c(C(F)(F)F)cccc2c1O`, the melting point is 204 °C.
